Measured values published in patent US20210040111A1, “DRUGS TO TREAT OCULAR DISORDERS” (Graybug Vision, Inc., priority 2018, published 2021).
In brackets after ≈: the same amount, converted by molar mass. Like-named read-outs stand apart in the source and are kept apart here.

What was measured:
[1] = Determination of prodrug solubility (50 mg/mL target, HPLC of supernatant); format: physicochemical; conditions: thermodynamic from solid
Experimental: For each test, approximately 5-10 mg was transferred to a 10 mL glass vial. Aqueous or organic solvent was added to each vial to achieve an overall concentration of 50 mg/mL. After vortexing aggressively for 2-3 minutes and sonicating in a bath sonicator for 5 minutes, undissolved drug was spun down at 1200×g for 5 minutes to generate a pellet. The supernatant was collected and filtered through a 0.2 μm nylon syringe filter into HPLC vials for drug content analysis. Drug concentration was determined by comparing against a standard calibration curve.

[2] = system: African green monkeys; conditions: monkey, in vivo
[3] = DMSO, organic solvent or mixture, read-out: Solubility DMSO
[4] = organic solvent or mixture, DCM (dichloromethane), read-out: Solubility DCM
[5] = water, read-out: Solubility Water

solubility [1, 3]	solubility [1, 4]	solubility [1, 5]	SMILES	Ocular toxicity findings [2]
> 100 mg/mL	> 50 mg/mL	< 0.1 mg/mL	CCOC(=O)[C@H](C)OC(=O)[C@H](C)OC(=O)[C@H](C)OC(=O)[C@H](C)OC(=O)c1cc(S(N)(=O)=O)c(Cl)cc1NCc1ccco1 [Compd 1, furosemide-ethyl-PLA (n=4)]	–
> 100 mg/mL	> 50 mg/mL	< 0.1 mg/mL	CCCCNc1cc(C(=O)O[C@@H](C)C(=O)O[C@@H](C)C(=O)O[C@@H](C)C(=O)O[C@@H](C)C(=O)OCC)cc(S(N)(=O)=O)c1Oc1ccccc1 [Compound 2, bumetanide-ethyl-PLA (n=4)]	–
> 100 mg/mL	> 50 mg/mL	< 0.1 mg/mL	CCOC(=O)[C@H](C)OC(=O)[C@H](C)OC(=O)[C@H](C)OC(=O)[C@H](C)OC(=O)[C@H](C)OC(=O)[C@H](C)OC(=O)c1cc(S(N)(=O)=O)c(Cl)cc1NCc1ccco1 [Compound 5, furosemide-ethyl-PLA (n=6)]	–

SMILES	solubility [1, 3]	solubility [1, 4]	solubility [1, 5]	Ocular toxicity findings [2]
CCCCNc1cc(C(=O)O)cc(S(N)(=O)=O)c1Oc1ccccc1 [Bumetanide, reference compound]	25 mg/mL (≈ 68.6 mM)	25 mg/mL (≈ 68.6 mM)	< 0.1 mg/mL	No ocular toxicity findings
